Laboratory results as given in patent EP4684787A1, “PHARMACEUTICAL COMPOSITION CONTAINING DIPEPTIDYL PEPTIDASE SMALL MOLECULE INHIBITOR” (Haisco Pharmaceuticals Pte. Ltd., priority 2023, dated 2024).

How the values were obtained:
[1] = Pharmacokinetic Experiment in Rats; format: in vivo, SD rats; details: Intravenous (1 mg/kg), rat plasma
Method: 1.1 Test animals: Male SD rats, ca. 220 g, 6-8 weeks old, 6 rats/compound. The rats were purchased from […] EXPERIMENTAL ANIMALS CO., LTD. 1.2 Test design: On the day of the test, 6 SD rats were randomly divided into groups according to body weight. The rats were fasted but had access to water for 12-14 hours one day before administration. The rats were fed 4 hours after administration. Table 9. Information for administration Vehicle for intravenous administration: 5% DMA + 5% Solutol + 90% Saline; Vehicle for oral gavage: 0.5% MC; control compound […] is namely Compound 2 in patent WO2015110826A1, and was prepared according to the method described in the patent. Rats were anesthetized with isoflurane before and after administration. Blood (0.1 ml) was collected by orbital blood collection and placed in EDTAK2 centrifuge tube. The blood sample was centrifuged at 5000 rpm at 4°C for 10 min. The plasma was collected. […] All samples were stored at -80° C till analysis and detection. Table 10. Pharmacokinetic parameters of test compounds in rat plasma

NE enzyme = details: background statement, no data; cited from earlier work
[2] = tested on: LPS-induced acute lung injury; details: background statement, no data; cited from earlier work

SMILES	CL [1]	Vdss [1]	NE enzyme activity in rat bone marrow (NE enzyme)	LPS-induced acute lung injury in mice [2]
Cn1c(=O)oc2ccc(-c3ccc(C[C@@H](C#N)NC(=O)[C@@H]4CNCCCO4)cc3)cc21 [INS 1007, reference compound]	2.08 mL/min/kg	0.738 L/kg		
Cn1c(=O)oc2ccc(-c3ccc(C[C@@H](C#N)NC(=O)[C@@H]4CNCCCO4)c(F)c3)cc21 [Compound A, (S)-N-((S)-1-cyano-2-(2-fluoro-4-(3-methyl-2-oxo-2,3-dihydrobenzo[d]oxazol-5-yl)phenyl)ethyl)-1,4-oxazepane-2-carboxamide]	1.66 mL/min/kg	0.753 L/kg	significantly inhibit	mitigate
